Values of other authors in publication PMC7259638, “Characterization of the intestinal absorption of morroniside from Cornus officinalis Sieb. et Zucc via a Caco-2 cell monolayer model” (PLoS ONE, 2020).

Tested on: Caco-2 cell model
Parameters: method as in PMID 30671130
Conditions: cited from earlier work

For `COC(=O)C1=CO[C@@H](O[C@@H]2O[C@H](CO)[C@@H](O)[C@H](O)[C@H]2O)[C@@H]2[C@@H](C)[C@@H](O)C[C@H]12` [loganin], which “intestinal permeability (in words)” value (human intestinal Caco-2 cell model) is on record?
The value was “good intestinal permeability”.

And the BCRP substrate status (previous study)?
The BCRP substrate status was “substrate of BCRP”.
